The source of these data is ChEMBL document CHEMBL1201862, “PubChem BioAssay data set” (2004).

Structures are written as SMILES.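 Briefly, cells in 96-well plates were exposed to five compound concentrations for 48 h, and endpoints were estimated by linear interpolation. GI50: concentration for 50% inhibition of growth.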 Calls of active or inactive are those of the source. Rule as the data show it: active = GI50 up to about 1.1 µM and inactive = higher.

Test systems include HCT-15; UO-31; SW-620; Malme-3M; U-251; HCT-116; NCI-H460; IGROV-1; M14; COLO 205; CCRF-CEM; EKVX; NCI/ADR-RES; PC-3; OVCAR-3; SK-MEL-28; MOLT-4; OVCAR-5; A549; MDA-N.
Holding throughout (assay): DTP human tumour cell line panel, 48 h

What is called GI50 is the concentration giving 50% growth inhibition.

With `CN(C)CCNCCCNc1c2ccccc2nc2cccc([N+](=O)[O-])c12`, the GI50 is 0.0826 µM in the assay with HCT-15; 0.0741 µM (active) with UO-31; < 0.0144 µM (active) in the assay on SW-620; 0.0461 µM (active) in the assay with Malme-3M; < 0.0175 µM (active) with U-251; < 0.0161 µM (active) in the assay with HCT-116. Also, the 50% growth inhibitory concentration (GI50) was < 0.0121 µM (active) with NCI-H460; < 0.0205 µM (active) in the assay on IGROV-1; 0.0224 µM (active) in the assay with M14; < 0.0141 µM (active) with COLO 205; < 0.0121 µM (active) with CCRF-CEM; < 0.017 µM (active) in the assay with EKVX. The GI50 in the assay with NCI/ADR-RES was 0.91 µM (active); with PC-3, < 0.0171 µM (active); with OVCAR-3, < 0.0157 µM (active); with SK-MEL-28 it was 0.188 µM (active); in the assay on MOLT-4, < 0.01 µM (active); with OVCAR-5, < 0.0148 µM (active). The GI50 in the assay with A549 was < 0.017 µM (active).

As to `CC(C)CC[C@H](O)[C@@H](C)[C@H]1[C@@H](OC2OC(C)C(O)C(O)C2O)C[C@H]2[C@@H]3CC=C4C[C@@H](O)CC[C@]4(C)[C@H]3[C@@H](O)C[C@]12C` (some centres undefined), the GI50 with HCT-15 is more than 56.1 µM; with UO-31, 1.77 µM (inactive); with SW-620, 0.533 µM (active); with Malme-3M, 1.85 µM (inactive); in the assay on U-251 it was 0.0562 µM (active); in the assay on HCT-116, 0.258 µM (active). Moreover, the GI50 in the assay on NCI-H460 was 0.241 µM (active); in the assay on IGROV-1 it was 4.42 µM (inactive); with M14, 1.55 µM (inactive); in the assay with COLO 205, 1.8 µM (inactive); with CCRF-CEM, 0.25 µM (active); with EKVX, 11.4 µM (inactive). Also, the GI50 with NCI/ADR-RES is > 92.9 µM (inactive); in the assay on OVCAR-3, > 100 µM (inactive); in the assay with SK-MEL-28, 0.506 µM (active); in the assay on MOLT-4 it was 0.0904 µM (active); in the assay with OVCAR-5, > 24.9 µM (inactive).

For `Oc1nc(S)nc2nc3c4cccnc4c4ccccc4c3nc12`, the GI50 with HCT-15 was more than 100 µM; in the assay with UO-31, > 100 µM (inactive); in the assay on SW-620, > 100 µM (inactive); in the assay with Malme-3M, > 100 µM (inactive); with MDA-N, > 100 µM (inactive); with U-251, > 100 µM (inactive). Also, the GI50 was > 100 µM (inactive) in the assay on HCT-116; 57.3 µM (inactive) with NCI-H460; > 100 µM (inactive) in the assay with IGROV-1; > 100 µM (inactive) in the assay on M14; > 100 µM (inactive) in the assay with COLO 205; 74.6 µM (inactive) with CCRF-CEM. Moreover, the GI50 in the assay with EKVX is > 100 µM (inactive); in the assay with PC-3 it was > 100 µM (inactive); in the assay with OVCAR-3, > 100 µM (inactive); in the assay on SK-MEL-28, 77.1 µM (inactive); in the assay on MOLT-4, > 100 µM (inactive); with OVCAR-5, > 100 µM (inactive). The GI50 in the assay with A549 was > 100 µM (inactive).

With `O=C1C=CC2(C=C1)C[C@H](NC(=O)OCc1ccccc1)C(=O)O2`, the GI50 in the assay with HCT-15 is 11 µM; with UO-31 it was 20.2 µM (inactive); in the assay on SW-620, 4.31 µM (inactive); in the assay on Malme-3M, 13 µM (inactive); in the assay on MDA-N, 14.8 µM (inactive); in the assay with U-251, 19.3 µM (inactive). Besides, the GI50 was 16 µM (inactive) with HCT-116; 24.3 µM (inactive) in the assay with NCI-H460; 19.8 µM (inactive) with IGROV-1; 15.5 µM (inactive) in the assay on M14; 5.93 µM (inactive) with COLO 205; 1.08 µM (active) in the assay on CCRF-CEM. Also, the GI50 in the assay on EKVX is 12.9 µM (inactive); in the assay with PC-3 it was 16.1 µM (inactive); in the assay on OVCAR-3 it was 15.5 µM (inactive); with SK-MEL-28 it was 13 µM (inactive); in the assay on MOLT-4, 1.8 µM (inactive); in the assay with OVCAR-5, 20.1 µM (inactive). In the assay with A549, the GI50 was 38.1 µM (inactive).

As to `CC1=NC(=Cc2ccc(O)cc2)C(=O)N1n1c(-c2ccccc2)nc2ccccc2c1=O`, the GI50 was more than 100 µM with HCT-15; > 100 µM (inactive) in the assay on UO-31; > 100 µM (inactive) with SW-620; > 100 µM (inactive) with Malme-3M; > 100 µM (inactive) in the assay with MDA-N; > 100 µM (inactive) in the assay on HCT-116. In addition, the GI50 with NCI-H460, in the assay with IGROV-1, with M14, with COLO 205, in the assay on CCRF-CEM and with EKVX was > 100 µM (inactive) each time. Moreover, the GI50 with PC-3, in the assay with SK-MEL-28, with MOLT-4 and in the assay with A549 was > 100 µM (inactive) in each case.

As to `CC(=O)O[C@H]1[C@@H](N2CCCCC2)C[C@H]2[C@@H]3CC=C4C[C@@H](N5CCCC5)CC[C@]4(C)[C@H]3CC[C@@]21C`, the GI50 with HCT-15 was 19.4 µM; with UO-31 it was > 100 µM (inactive); in the assay with SW-620, > 100 µM (inactive); in the assay with Malme-3M, 22.8 µM (inactive); with U-251, 69 µM (inactive); in the assay on HCT-116 it was 64.3 µM (inactive). Moreover, the GI50 is 91.6 µM (inactive) in the assay on NCI-H460; > 100 µM (inactive) with IGROV-1; 19.2 µM (inactive) in the assay on M14; > 100 µM (inactive) with COLO 205; 31.9 µM (inactive) in the assay on CCRF-CEM; > 100 µM (inactive) in the assay with EKVX. The GI50 with NCI/ADR-RES is > 100 µM (inactive); in the assay on PC-3, 43.4 µM (inactive); in the assay on OVCAR-3 it was > 100 µM (inactive); in the assay on SK-MEL-28, 22 µM (inactive); in the assay with MOLT-4, 44.5 µM (inactive); with OVCAR-5, 48.6 µM (inactive). For the same compound, in the assay on A549, the GI50 was > 100 µM (inactive).

As to `Cc1ccc(C(=O)/C=C/N2CCN(c3cccc(C(F)(F)F)c3)CC2)cc1`, the GI50 was 15.6 µM in the assay with HCT-15; 17.5 µM (inactive) with UO-31; 20.6 µM (inactive) in the assay with SW-620; 18.6 µM (inactive) with Malme-3M; 16.8 µM (inactive) with U-251; 16.7 µM (inactive) in the assay with HCT-116. In addition, the GI50 in the assay with NCI-H460 was 21.7 µM (inactive); with IGROV-1 it was 16.3 µM (inactive); in the assay on M14, 16.9 µM (inactive); in the assay on COLO 205 it was 24.3 µM (inactive); with EKVX, 18.7 µM (inactive); with NCI/ADR-RES it was 17.9 µM (inactive). Moreover, the GI50 with PC-3 was 25.1 µM (inactive); in the assay on OVCAR-3 it was 14.4 µM (inactive); with SK-MEL-28, 19.7 µM (inactive); with MOLT-4, 15.1 µM (inactive); in the assay with OVCAR-5 it was 21.4 µM (inactive); in the assay with A549, 22.9 µM (inactive).

Consider `CCOC(=O)NC(=O)c1cn(CCCOC(=O)CCCCCCCCCCC(=O)OCCCn2cc(C(=O)NC(=O)OCC)c(=O)n(C)c2=O)c(=O)n(C)c1=O`, for which the concentration for 50% growth inhibition (GI50) was more than 100 µM in the assay with HCT-15; > 100 µM (inactive) with UO-31; > 100 µM (inactive) in the assay on SW-620; > 100 µM (inactive) in the assay on Malme-3M; > 100 µM (inactive) in the assay with U-251; > 100 µM (inactive) in the assay with HCT-116. Besides, the GI50 in the assay with NCI-H460, in the assay with IGROV-1, in the assay with M14, with COLO 205, in the assay on CCRF-CEM and in the assay on EKVX was > 100 µM (inactive) throughout. Besides, the GI50 in the assay with OVCAR-3, with SK-MEL-28, in the assay with MOLT-4, with OVCAR-5 and in the assay on A549 was > 100 µM (inactive) throughout.
